US20090047221A1 (NIPRI LIMITED, priority 2004, published 2009)

Test system: cancer cell line MDA-MB-468
Assay: Combination index with known cancer drugs against proliferation (Calcusyn software)
Format: cell-based
Description: A combination index of less than 0.1 indicates very strong synergy; a combination index of 0.1 to 0.3 indicates strong synergism; a combination index of 0.3 to 0.7 indicates synergism; a combination index of 0.7 to 0.85 indicates moderate synergism; a combination index of 0.85 to 0.9 indicates slight synergism and a combination index of 0.9 to 1.1 indicates only very slight synergism, said combination being close to merely additive.
The combination index may be calculated using calcusyn software.
Evidence of synergy was determined by calculation of the combination index using Calcusyn software.
The MTT assay was used initially to determine the anti-proliferative activity of the test compounds. In the MTT assay a yellow thiazolyl blue tetrazolium bromide salt (MTT) is reduced, in metabolically active cells, to form insoluble purple formazan crystals which are solubilised by the addition of dimethyl sulphoxide (DMSO). Absorbance readings can then be determined spectrophotometrically and a relationship established between control untreated cells and drug treated cells enabling the quantification of anti-proliferative changes as a result of drug treatment (Mosmann, 1983).
Wells containing medium only were used as blanks. Following the attachment period, cells were treated with appropriate drug concentrations (20 μl added per well). 40 mg/ml stock drug solutions, in DMSO, were stored at −20° C. and on the day of drug treatment working solutions of 4 mg/ml were prepared in medium which was further diluted to achieve final drug dilution volumes of 20 μl. Initial screening was determined over a concentration range of 1-200 μg/ml. For potent compounds the assay was repeated over a narrower concentration range to determine accurate IC50 values. Cells were exposed to drug for 96 h continual exposure (37° C., 5% CO2). Following the 96 h incubation, 50 μl MTT solution (1 g MTT/500 ml PBS) was added per well and the plates were further incubated for 4 h (37° C., 5% CO2). After incubation the MTT and medium was removed from the wells and 100 μl DMSO added per well. Plates were agitated on an orbital mixer platform (Stuart Scientific) for 10 minutes. Absorbance was measured at 570 nm on a Biotrak II (Amersham Bioscience) plate reader. IC50 values were calculated comparing control and drug treated cells.

## CCCCCCNC(=O)c1ccc2c(c1O)C(=O)OC(C)C2 (racemic) [ALM-49, Hexyl Amide]
Cisplatin 1 × 10^−2 mol/L, ALM compound 0.1 μg/ml
  Combination Index: 0.003
Cisplatin 1 × 10^−2 mol/L, ALM compound 0.5 μg/ml
  Combination Index: 0.002
Cisplatin 1 × 10^−2 mol/L, ALM compound 1.0 μg/ml
  Combination Index: 0.009
Cisplatin 1 × 10^−2 mol/L, ALM compound 5.0 μg/ml
  Combination Index: 0.051
Cisplatin 1 × 10^−3 mol/L, ALM compound 0.1 μg/ml
  Combination Index: No
Cisplatin 1 × 10^−3 mol/L, ALM compound 0.5 μg/ml
  Combination Index: No
Cisplatin 1 × 10^−3 mol/L, ALM compound 1.0 μg/ml
  Combination Index: No
Cisplatin 1 × 10^−3 mol/L, ALM compound 5.0 μg/ml
  Combination Index: No
Cisplatin 1 × 10^−4 mol/L, ALM compound 0.1 μg/ml
  Combination Index: No
Cisplatin 1 × 10^−4 mol/L, ALM compound 0.5 μg/ml
  Combination Index: No
Cisplatin 1 × 10^−4 mol/L, ALM compound 1.0 μg/ml
  Combination Index: No
Cisplatin 1 × 10^−4 mol/L, ALM compound 5.0 μg/ml
  Combination Index: No
Cisplatin 1 × 10^−5 mol/L, ALM compound 0.1 μg/ml
  Combination Index: No
Cisplatin 1 × 10^−5 mol/L, ALM compound 0.5 μg/ml
  Combination Index: No
Cisplatin 1 × 10^−5 mol/L, ALM compound 1.0 μg/ml
  Combination Index: No
Cisplatin 1 × 10^−5 mol/L, ALM compound 5.0 μg/ml
  Combination Index: No
Cisplatin 1 × 10^−6 mol/L, ALM compound 0.1 μg/ml
  Combination Index: No
Cisplatin 1 × 10^−6 mol/L, ALM compound 0.5 μg/ml
  Combination Index: No
Cisplatin 1 × 10^−6 mol/L, ALM compound 1.0 μg/ml
  Combination Index: No
Cisplatin 1 × 10^−6 mol/L, ALM compound 5.0 μg/ml
  Combination Index: No
Cisplatin 1 × 10^−7 mol/L, ALM compound 0.1 μg/ml
  Combination Index: 0.625
Cisplatin 1 × 10^−7 mol/L, ALM compound 0.5 μg/ml
  Combination Index: No
Cisplatin 1 × 10^−7 mol/L, ALM compound 1.0 μg/ml
  Combination Index: No
Cisplatin 1 × 10^−7 mol/L, ALM compound 5.0 μg/ml
  Combination Index: No
Cisplatin 1 × 10^−8 mol/L, ALM compound 0.1 μg/ml
  Combination Index: 0.119
Cisplatin 1 × 10^−8 mol/L, ALM compound 0.5 μg/ml
  Combination Index: No
Cisplatin 1 × 10^−8 mol/L, ALM compound 1.0 μg/ml
  Combination Index: No
Cisplatin 1 × 10^−8 mol/L, ALM compound 5.0 μg/ml
  Combination Index: No
Cisplatin 1 × 10^−9 mol/L, ALM compound 0.1 μg/ml
  Combination Index: 0.487
Cisplatin 1 × 10^−9 mol/L, ALM compound 0.5 μg/ml
  Combination Index: No
Cisplatin 1 × 10^−9 mol/L, ALM compound 1.0 μg/ml
  Combination Index: No
Cisplatin 1 × 10^−9 mol/L, ALM compound 5.0 μg/ml
  Combination Index: No
Doxorubicin 1 × 10^−4 mol/L, ALM compound 0.1 μg/ml
  Combination Index: No
Doxorubicin 1 × 10^−4 mol/L, ALM compound 0.5 μg/ml
  Combination Index: No
Doxorubicin 1 × 10^−4 mol/L, ALM compound 1.0 μg/ml
  Combination Index: No
Doxorubicin 1 × 10^−4 mol/L, ALM compound 5.0 μg/ml
  Combination Index: 0.968
Doxorubicin 1 × 10^−5 mol/L, ALM compound 0.1 μg/ml
  Combination Index: 0.410
Doxorubicin 1 × 10^−5 mol/L, ALM compound 0.5 μg/ml
  Combination Index: 0.436
Doxorubicin 1 × 10^−5 mol/L, ALM compound 1.0 μg/ml
  Combination Index: 0.438
Doxorubicin 1 × 10^−5 mol/L, ALM compound 5.0 μg/ml
  Combination Index: 0.720
Etoposide 1 × 10^−4 mol/L, ALM compound 0.1 μg/ml
  Combination Index: 0.385
Etoposide 1 × 10^−4 mol/L, ALM compound 0.5 μg/ml
  Combination Index: 0.234
Etoposide 1 × 10^−4 mol/L, ALM compound 1.0 μg/ml
  Combination Index: 0.210
Etoposide 1 × 10^−4 mol/L, ALM compound 5.0 μg/ml
  Combination Index: 0.175
Etoposide 1 × 10^−5 mol/L, ALM compound 0.1 μg/ml
  Combination Index: 1.184
Etoposide 1 × 10^−5 mol/L, ALM compound 0.5 μg/ml
  Combination Index: 0.659
Etoposide 1 × 10^−5 mol/L, ALM compound 1.0 μg/ml
  Combination Index: 1.065
Etoposide 1 × 10^−5 mol/L, ALM compound 5.0 μg/ml
  Combination Index: 0.941
Etoposide 1 × 10^−6 mol/L, ALM compound 0.1 μg/ml
  Combination Index: No
Etoposide 1 × 10^−6 mol/L, ALM compound 0.5 μg/ml
  Combination Index: 0.806
Etoposide 1 × 10^−6 mol/L, ALM compound 1.0 μg/ml
  Combination Index: No
Etoposide 1 × 10^−6 mol/L, ALM compound 5.0 μg/ml
  Combination Index: No
Etoposide 1 × 10^−7 mol/L, ALM compound 0.1 μg/ml
  Combination Index: 1.167
Etoposide 1 × 10^−7 mol/L, ALM compound 0.5 μg/ml
  Combination Index: 0.78
Etoposide 1 × 10^−7 mol/L, ALM compound 1.0 μg/ml
  Combination Index: No
Etoposide 1 × 10^−7 mol/L, ALM compound 5.0 μg/ml
  Combination Index: No
Etoposide 1 × 10^−8 mol/L, ALM compound 0.1 μg/ml
  Combination Index: No
Etoposide 1 × 10^−8 mol/L, ALM compound 0.5 μg/ml
  Combination Index: No
Etoposide 1 × 10^−8 mol/L, ALM compound 1.0 μg/ml
  Combination Index: No
Etoposide 1 × 10^−8 mol/L, ALM compound 5.0 μg/ml
  Combination Index: No
Etoposide 1 × 10^−9 mol/L, ALM compound 0.1 μg/ml
  Combination Index: 0.836
Etoposide 1 × 10^−9 mol/L, ALM compound 0.5 μg/ml
  Combination Index: No
Etoposide 1 × 10^−9 mol/L, ALM compound 1.0 μg/ml
  Combination Index: No
Etoposide 1 × 10^−9 mol/L, ALM compound 5.0 μg/ml
  Combination Index: No
Etoposide 1 × 10^−10 mol/L, ALM compound 0.1 μg/ml
  Combination Index: 0.344
Etoposide 1 × 10^−10 mol/L, ALM compound 0.5 μg/ml
  Combination Index: No
Etoposide 1 × 10^−10 mol/L, ALM compound 1.0 μg/ml
  Combination Index: No
Etoposide 1 × 10^−10 mol/L, ALM compound 5.0 μg/ml
  Combination Index: No
Irinotecan 1 × 10^−3 mol/L, ALM compound 0.1 μg/ml
  Combination Index: No
Irinotecan 1 × 10^−3 mol/L, ALM compound 0.5 μg/ml
  Combination Index: 0.606
Irinotecan 1 × 10^−3 mol/L, ALM compound 1.0 μg/ml
  Combination Index: 0.715
Irinotecan 1 × 10^−3 mol/L, ALM compound 5.0 μg/ml
  Combination Index: 0.557
Irinotecan 1 × 10^−4 mol/L, ALM compound 0.1 μg/ml
  Combination Index: 0.029
Irinotecan 1 × 10^−4 mol/L, ALM compound 0.5 μg/ml
  Combination Index: 0.019
Irinotecan 1 × 10^−4 mol/L, ALM compound 1.0 μg/ml
  Combination Index: 0042
Irinotecan 1 × 10^−4 mol/L, ALM compound 5.0 μg/ml
  Combination Index: 0.042
Irinotecan 1 × 10^−5 mol/L, ALM compound 0.1 μg/ml
  Combination Index: No
Irinotecan 1 × 10^−5 mol/L, ALM compound 0.5 μg/ml
  Combination Index: No
Irinotecan 1 × 10^−5 mol/L, ALM compound 1.0 μg/ml
  Combination Index: No
Irinotecan 1 × 10^−5 mol/L, ALM compound 5.0 μg/ml
  Combination Index: No
Irinotecan 1 × 10^−6 mol/L, ALM compound 0.1 μg/ml
  Combination Index: No
Irinotecan 1 × 10^−6 mol/L, ALM compound 0.5 μg/ml
  Combination Index: No
Irinotecan 1 × 10^−6 mol/L, ALM compound 1.0 μg/ml
  Combination Index: No
Irinotecan 1 × 10^−6 mol/L, ALM compound 5.0 μg/ml
  Combination Index: No
Irinotecan 1 × 10^−7 mol/L, ALM compound 0.1 μg/ml
  Combination Index: No
Irinotecan 1 × 10^−7 mol/L, ALM compound 0.5 μg/ml
  Combination Index: No
Irinotecan 1 × 10^−7 mol/L, ALM compound 1.0 μg/ml
  Combination Index: No
Irinotecan 1 × 10^−7 mol/L, ALM compound 5.0 μg/ml
  Combination Index: No
Irinotecan 1 × 10^−8 mol/L, ALM compound 0.1 μg/ml
  Combination Index: No
Irinotecan 1 × 10^−8 mol/L, ALM compound 0.5 μg/ml
  Combination Index: No
Irinotecan 1 × 10^−8 mol/L, ALM compound 1.0 μg/ml
  Combination Index: No
Irinotecan 1 × 10^−8 mol/L, ALM compound 5.0 μg/ml
  Combination Index: No
Irinotecan 1 × 10^−9 mol/L, ALM compound 0.1 μg/ml
  Combination Index: No
Irinotecan 1 × 10^−9 mol/L, ALM compound 0.5 μg/ml
  Combination Index: No
Irinotecan 1 × 10^−9 mol/L, ALM compound 1.0 μg/ml
  Combination Index: No
Irinotecan 1 × 10^−9 mol/L, ALM compound 5.0 μg/ml
  Combination Index: No
Irinotecan 1 × 10^−10 mol/L, ALM compound 0.1 μg/ml
  Combination Index: No
Irinotecan 1 × 10^−10 mol/L, ALM compound 0.5 μg/ml
  Combination Index: No
Irinotecan 1 × 10^−10 mol/L, ALM compound 1.0 μg/ml
  Combination Index: No
Irinotecan 1 × 10^−10 mol/L, ALM compound 5.0 μg/ml
  Combination Index: No
